This passage reports CC50 results from patent US12448388B2, “PRMT5 inhibitors and uses thereof” (Gilead Sciences, Inc., priority 2023, dated 2025).

The assay has as its system HCT116 MTAP-deleted cell lines. Nature of the assay: Cell viability assay (CellTiter-Glo, 7 days), HCT116 MTAP-deleted. The note with it: Homo sapiens, HCT-116; cell viability assay, HCT116 MTAP-deleted; class symbols; read-out: CC50. In kind it is cell-based. The procedure, abridged:
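PRMT5 inhibitors were serially diluted in DMSO and acoustically spotted as dose-response series into plates before cell seeding. Cells were grown with compound for 7 days at 37 °C, 5% CO2, 90% humidity, then viability was read by CellTiter-Glo luminescence and reported as CC50.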
In general terms: ATP-based viability assays read luminescence as a measure of living cells.
Usually CC50 stands for the concentration giving 50% cytotoxicity. On to `CN(Cc1ccc(C(F)(F)F)cc1F)C(=O)c1ccc2nc(N)c3cncn3c2c1` [Ff-411, 4-amino-N-[[2-fluoro-4-(trifluoromethyl)phenyl]methyl]-N-methyl-imidazo[1,5-a]quinoxaline-8-carboxamide], for which the cytotoxic concentration (CC50) was 100 to 1000 nM.

As for `Cc1nn(C)cc1N(Cc1ccc(C(F)(F)F)cc1F)C(=O)c1cc2c(cc1F)nc(N)c1cncn12` [Ff-413, 4-amino-N-(1,3-dimethylpyrazol-4-yl)-7-fluoro-N-[[2-fluoro-4-(trifluoromethyl)phenyl]methyl]imidazo[1,5-a]quinoxaline-8-carboxamide], the 50% cytotoxic concentration (CC50) was less than 100 nM.

Take `Cc1c(N(Cc2ccc(C(F)(F)F)cc2F)C(=O)c2cc3c(cc2F)nc(N)c2cncn23)cnn1C` [Ff-414, 4-amino-N-(1,5-dimethylpyrazol-4-yl)-7-fluoro-N-[[2-fluoro-4-(trifluoromethyl)phenyl]methyl]imidazo[1,5-a]quinoxaline-8-carboxamide]: the CC50 was less than 100 nM.

Consider `Nc1nc2cc(F)c(C(=O)N(Cc3ccc(C(F)(F)F)cn3)C3CC(F)(F)C3)cc2n2cncc12` [Ff-415, 4-amino-N-(3,3-difluorocyclobutyl)-7-fluoro-N-[[5-(trifluoromethyl)-2-pyridyl]methyl]imidazo[1,5-a]quinoxaline-8-carboxamide], for which the CC50 is less than 100 nM.

For `C[C@H](c1ncccn1)N(Cc1ccc(C(F)(F)F)cc1F)C(=O)c1cc2c(cc1F)nc(N)c1cncn12` [Ff-416, 4-amino-7-fluoro-N-[[2-fluoro-4-(trifluoromethyl)phenyl]methyl]-N-[(1R)-1-pyrimidin-2-ylethyl]imidazo[1,5-a]quinoxaline-8-carboxamide], the CC50 was less than 100 nM.

Turning to `Cc1nn(C)c(C)c1N(Cc1ccc(C(F)(F)F)cc1F)C(=O)c1cc2c(cc1F)nc(N)c1cncn12` [Ff-417, 4-amino-7-fluoro-N-[[2-fluoro-4-(trifluoromethyl)phenyl]methyl]-N-(1,3,5-trimethylpyrazol-4-yl)imidazo[1,5-a]quinoxaline-8-carboxamide], the CC50 is less than 100 nM.

`C[C@H](C#N)N(Cc1ccc(C(F)(F)F)cc1F)C(=O)c1cc2c(cc1F)nc(N)c1cncn12` [Ff-418, 4-amino-N-[(1R)-1-cyanoethyl]-7-fluoro-N-[[2-fluoro-4-(trifluoromethyl)phenyl]methyl]imidazo[1,5-a]quinoxaline-8-carboxamide]: the CC50 fell in the range of 100 to 1000 nM.

As for `COC[C@@H](C)N(Cc1ccc(C(F)(F)F)cc1F)C(=O)c1cc2c(cc1F)nc(N)c1cncn12` [Ff-419, 4-amino-7-fluoro-N-[[2-fluoro-4-(trifluoromethyl)phenyl]methyl]-N-[(1R)-2-methoxy-1-methyl-ethyl]imidazo[1,5-a]quinoxaline-8-carboxamide], the CC50 is less than 100 nM.

Regarding `C[C@H](C(N)=O)N(Cc1ccc(C(F)(F)F)cc1F)C(=O)c1cc2c(cc1F)nc(N)c1cncn12` [Ff-420, 4-amino-N-[(1R)-2-amino-1-methyl-2-oxo-ethyl]-7-fluoro-N-[[2-fluoro-4-(trifluoromethyl)phenyl]methyl]imidazo[1,5-a]quinoxaline-8-carboxamide], the CC50 was in the range of 100 to 1000 nM.

For `Cn1cc(N(Cc2ccc(C(F)(F)F)cc2F)C(=O)c2cc3c(cc2F)nc(N)c2cncn23)c(Cl)n1` [Ff-421, 4-amino-N-(3-chloro-1-methyl-pyrazol-4-yl)-7-fluoro-N-[[2-fluoro-4-(trifluoromethyl)phenyl]methyl]imidazo[1,5-a]quinoxaline-8-carboxamide], the CC50 was less than 100 nM.

In the case of `COc1nn(C)cc1N(Cc1ccc(C(F)(F)F)cc1F)C(=O)c1cc2c(cc1F)nc(N)c1cncn12` [Ff-422, 4-amino-7-fluoro-N-[[2-fluoro-4-(trifluoromethyl)phenyl]methyl]-N-(3-methoxy-1-methyl-pyrazol-4-yl)imidazo[1,5-a]quinoxaline-8-carboxamide], the 50% cytotoxic concentration (CC50) was less than 100 nM.

As for `Nc1nc2cc(F)c(C(=O)N(Cc3ccc(C(F)(F)F)cn3)c3cnn4ccccc34)cc2n2cncc12` [Ff-423, 4-amino-7-fluoro-N-pyrazolo[1,5-a]pyridin-3-yl-N-[[5-(trifluoromethyl)-2-pyridyl]methyl]imidazo[1,5-a]quinoxaline-8-carboxamide], the CC50 is less than 100 nM.

For the compound `Nc1nc2cc(F)c(C(=O)N(Cc3ccc(C(F)(F)F)cc3F)c3cnn4ccccc34)cc2n2cncc12` [Ff-424, 4-amino-7-fluoro-N-[[2-fluoro-4-(trifluoromethyl)phenyl]methyl]-N-pyrazolo[1,5-a]pyridin-3-yl-imidazo[1,5-a]quinoxaline-8-carboxamide], the CC50 is less than 100 nM.

On to `CN(C(=O)c1cc2c(cc1F)nc(N)c1cncn12)C1CCCc2cc(Cl)ccc21` (centres unmarked) [Ff-425, 4-amino-N-(6-chloro-1,2,3,4-tetrahydronaphthalen-1-yl)-7-fluoro-N-methylimidazo[1,5-a]quinoxaline-8-carboxamide], for which the CC50 lay within 100 to 1000 nM.

On to `CN(C(=O)c1cc2c(cc1F)nc(N)c1cncn12)C1CCc2sccc21` (centres unmarked) [Ff-426, 4-amino-N-(5,6-dihydro-4H-cyclopenta[b]thiophen-4-yl)-7-fluoro-N-methyl-imidazo[1,5-a]quinoxaline-8-carboxamide], for which the CC50 lay within 100 to 1000 nM.

As for `CN(Cc1ccc([C@@H]2C[C@H]2c2ccn(C(F)F)n2)cn1)C(=O)c1cc2c(cc1F)nc(N)c1cncn12` [Ff-428, 4-amino-N-[[5-[(1R,2R)-2-[1-(difluoromethyl)pyrazol-3-yl]cyclopropyl]-2-pyridyl]methyl]-7-fluoro-N-methyl-imidazo[1,5-a]quinoxaline-8-carboxamide], the CC50 was in the range of 100 to 1000 nM.

For `CN(Cc1ccc([C@@H]2C[C@H]2c2ccn(C(F)F)n2)cc1F)C(=O)c1cc2c(cc1F)nc(N)c1cncn12` [Ff-429, 4-amino-N-[[4-[(1R,2R)-2-[1-(difluoromethyl)pyrazol-3-yl]cyclopropyl]-2-fluoro-phenyl]methyl]-7-fluoro-N-methyl-imidazo[1,5-a]quinoxaline-8-carboxamide], the CC50 was less than 100 nM.

As for `CN(C(=O)c1cc2c(cc1F)nc(N)c1cncn12)C1CCCc2cc(C(F)(F)F)ccc21` (centres unmarked) [Ff-430, 4-amino-7-fluoro-N-methyl-N-[6-(trifluoromethyl)tetralin-1-yl]imidazo[1,5-a]quinoxaline-8-carboxamide], the CC50 was in the range of 100 to 1000 nM.

`COC[C@H](c1ccc(C(F)(F)F)cc1)N(C)C(=O)c1cc2c(cc1F)nc(N)c1cncn12` [Ff-431, 4-amino-7-fluoro-N-[(1S)-2-methoxy-1-[4-(trifluoromethyl)phenyl]ethyl]-N-methyl-imidazo[1,5-a]quinoxaline-8-carboxamide]: the CC50 lay in the range of 100 to 1000 nM.

With `Nc1nc2cc(F)c(C(=O)N3CCCCC4Oc5cc(C(F)(F)F)ccc5C43)cc2n2cncc12` (centres unmarked) [Ff-432, (4-amino-7-fluoro-imidazo[1,5-a]quinoxalin-8-yl)-[8-(trifluoromethyl)-2,3,4,5,5a,10b-hexahydrobenzofuro[3,2-b]azepin-1-yl]methanone], the CC50 is less than 100 nM.

`CN(Cc1ccc(OCC(F)(F)F)cc1)C(=O)c1cc2c(cc1F)nc(N)c1cncn12` [Ff-433, 4-amino-7-fluoro-N-methyl-N-[[4-(2,2,2-trifluoroethoxy)phenyl]methyl]imidazo[1,5-a]quinoxaline-8-carboxamide]: the CC50 was 100 to 1000 nM.

For `CN(C(=O)c1cc2c(cc1F)nc(N)c1cncn12)[C@@H]1CCc2cc([C@@H]3C[C@H]3C#N)ccc21` [Ff-434, Trans-4-amino-N-[(1R)-5-(2-cyanocyclopropyl)indan-1-yl]-7-fluoro-N-methyl-imidazo[1,5-a]quinoxaline-8-carboxamide], the CC50 is less than 100 nM.

`Cc1ncn2c1c(N)nc1cnc(C(=O)N(C)C3CCc4cc(C(F)(F)F)ccc43)cc12` (centres unmarked) [Ff-435, 7-amino-N,5-dimethyl-N-[5-(trifluoromethyl)indan-1-yl]-2,4,8,11-tetrazatricyclo[7.4.0.02,6]trideca-1(13),3,5,7,9,11-hexaene-12-carboxamide]: the CC50 fell in the range of 100 to 1000 nM.

Regarding `CN(C(=O)c1cc2c(cn1)nc(N)c1cncn12)C1CCc2cc(C(F)(F)F)ccc21` (centres unmarked) [Ff-436, 7-amino-N-methyl-N-[5-(trifluoromethyl)indan-1-yl]-2,4,8,11-tetrazatricyclo[7.4.0.02,6]trideca-1(13),3,5,7,9,11-hexaene-12-carboxamide], the CC50 is less than 100 nM.

With `CN(C(=O)c1cc2c(cc1F)nc(N)c1cncn12)[C@@H]1COc2cc(C#CC3(C(F)F)CCOCC3)ccc21` [Ff-437, (S)-4-amino-N-(6-((4-(difluoromethyl)tetrahydro-2H-pyran-4-yl)ethynyl)-2,3-dihydrobenzofuran-3-yl)-7-fluoro-N-methylimidazo[1,5-a]quinoxaline-8-carboxamide], the cytotoxic concentration (CC50) is less than 100 nM.

As for `CN(C(=O)c1cc2c(cc1F)nc(N)c1cncn12)[C@@H]1COc2cc([C@@H]3C[C@H]3C#N)c(F)cc21` [Ff-438, Trans-4-amino-N-[(3S)-6-(2-cyanocyclopropyl)-5-fluoro-2,3-dihydrobenzofuran-3-yl]-7-fluoro-N-methyl-imidazo[1,5-a]quinoxaline-8-carboxamide], the CC50 was less than 100 nM.

Take `CN(C(=O)c1cc2c(cc1F)nc(N)c1cncn12)[C@@H]1COc2cc(C#CC(C)(C)C#N)ccc21` [Ff-439, 4-amino-N-[(3S)-6-(3-cyano-3-methyl-but-1-ynyl)-2,3-dihydrobenzofuran-3-yl]-7-fluoro-N-methyl-imidazo[1,5-a]quinoxaline-8-carboxamide]: the CC50 is less than 100 nM.

`CN(C(=O)c1cc2c(cc1F)nc(N)c1cncn12)[C@@H]1COc2cc(C#CC3(F)COC3)ccc21` [Ff-440, 4-amino-7-fluoro-N-[(3S)-6-[2-(3-fluorooxetan-3-yl)ethynyl]-2,3-dihydrobenzofuran-3-yl]-N-methyl-imidazo[1,5-a]quinoxaline-8-carboxamide]: the CC50 was less than 100 nM.

For the compound `CN(C(=O)c1cc2c(cc1F)nc(N)c1cncn12)[C@@H]1COc2cc(C#CC3(CC#N)CC3)ccc21` [Ff-441, 4-amino-N-[(3S)-6-[2-[1-(cyanomethyl)cyclopropyl]ethynyl]-2,3-dihydrobenzofuran-3-yl]-7-fluoro-N-methyl-imidazo[1,5-a]quinoxaline-8-carboxamide], the cytotoxic concentration (CC50) is less than 100 nM.
